Reference: patent US20050208496A1, “Methods of testing for bronchial asthma or chronic obstructive pulmonary disease” (Genox Research, Inc., priority 2002, published 2005)

Test system: mouse counterpart genes
Assay: Mouse GeneChip (MG-U74A to MG-U74C) analysis of lung and trachea of the OVA antigen-exposed bronchial hypersensitivity model, S-Sal group versus S-OVA group
Assay type: in vivo
Details: S-Sal vs S-OVA group

ovalbumin [OVA antigen, ovalbumin antigen used for sensitization and inhalation to induce bronchial hypersensitivity in mice]
Fold Change, myxovirus (influenza virus) resistance 1 (mouse Probe ID 98417_at) (1st, P/A: A): 1.1 | Fold Change, myxovirus (influenza virus) resistance 2 (mouse Probe ID 102699_at) (1st, P/A: A): 1.2 | Fold Change, myxovirus (influenza virus) resistance 1 (mouse Probe ID 98417_at) (2nd, P/A: A): 2.2 | Fold Change, myxovirus (influenza virus) resistance 2 (mouse Probe ID 102699_at) (2nd, P/A: P): 0.909 | Fold Change, myxovirus (influenza virus) resistance 1 (mouse Probe ID 98417_at) (3rd, P/A: A): 3 | Fold Change, myxovirus (influenza virus) resistance 2 (mouse Probe ID 102699_at) (3rd, P/A: A): 1.3
